Data reported in PubChem BioAssay AID256 (DTP/NCI, 2004).
Several values for one entry are separate records, joined by “and”; a condition that tells them apart may be missing. Equal entries are not always repeated. Inconclusive results and toxic doses are left out. Rule for the calls: active = survival T/C of 150% or more; inactive = T/C below 125% in these data.

System: CD2F1 mice, L1210 leukemia ip, survival T/C
Experiment: NCI In Vivo Anticancer Drug Screen. Data for tumor model L1210 Leukemia (intraperitoneal) in CD2F1 (CDF1) mice
Details: higher = longer survival
Outline: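 Transplantable tumor in mice; compound-treated vs vehicle-treated groups. Read-out = treated/control ratio of the measured endpoint.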

[1] = endpoint: mean survival time, dose: 12.5 mg/kg/injection, schedule: Q01DX009 (ip), vehicle: water
[2] = endpoint: mean survival time, dose: 25.0 mg/kg/injection, schedule: Q01DX009 (ip), vehicle: water
[3] = endpoint: mean survival time, dose: 50.0 mg/kg/injection, schedule: Q01DX009 (ip), vehicle: water
[4] = endpoint: mean survival time, dose: 100.0 mg/kg/injection, schedule: Q04DX003 (ip), vehicle: saline
[5] = endpoint: mean survival time, dose: 200.0 mg/kg/injection, schedule: Q04DX003 (ip), vehicle: saline
[6] = endpoint: mean survival time, dose: 100.0 mg/kg/injection, schedule: Q01DX009 (ip), vehicle: water
[7] = endpoint: mean survival time, dose: 100.0 mg/kg/injection, schedule: Q01DX009 (ip), vehicle: saline with Tween-80
[8] = endpoint: mean survival time, dose: 400.0 mg/kg/injection, schedule: Q01DX009 (ip), vehicle: saline with Tween-80
[9] = endpoint: mean survival time, dose: 50.0 mg/kg/injection, schedule: Q01DX009 (ip), vehicle: saline with Tween-80

Measured: T/C

Nc1n[n+](-c2ccc(Cl)cc2)no1
inactive: endpoint: mean survival time, dose: 1.56 mg/kg/injection, schedule: Q01DX009 (ip), vehicle: water 92 % of control | endpoint: mean survival time, dose: 3.12 mg/kg/injection, schedule: Q01DX009 (ip), vehicle: water 97 % of control and 112 % of control | endpoint: mean survival time, dose: 6.25 mg/kg/injection, schedule: Q01DX009 (ip), vehicle: water 93 % of control and 96 % of control | [1] 95 % of control and 98 % of control | [2] 103 % of control and 104 % of control | [3] 114 % of control

CCOCCc1ccncc1
inactive: [4] 101 % of control | [5] 104 % of control

CC(=O)N(C)N=Nc1ccc(C(F)(F)F)cc1
inactive: endpoint: mean survival time, dose: 50.0 mg/kg/injection, schedule: Q04DX003 (ip), vehicle: Klucel (hydroxypropylcellulose) (HPC) 97 % of control | endpoint: mean survival time, dose: 100.0 mg/kg/injection, schedule: Q04DX003 (ip), vehicle: Klucel (hydroxypropylcellulose) (HPC) 102 % of control | endpoint: mean survival time, dose: 200.0 mg/kg/injection, schedule: Q04DX003 (ip), vehicle: Klucel (hydroxypropylcellulose) (HPC) 96 % of control | endpoint: mean survival time, dose: 400.0 mg/kg/injection, schedule: Q04DX003 (ip), vehicle: Klucel (hydroxypropylcellulose) (HPC) 105 % of control

C[C@]12C=CC(=O)C=C1CC[C@@H]1[C@@H]2CC[C@]2(C)OC(=O)CC[C@@H]12
inactive: endpoint: median survival time, dose: 125.0 mg/kg/injection, schedule: Q01DX009 (sc), vehicle: steriod suspending solution 97 % of control | endpoint: median survival time, dose: 125.0 mg/kg/injection, schedule: Q## X009 (sc), vehicle: steriod suspending solution 97 % of control | endpoint: median survival time, dose: 250.0 mg/kg/injection, schedule: Q01DX009 (sc), vehicle: steriod suspending solution 104 % of control | endpoint: median survival time, dose: 250.0 mg/kg/injection, schedule: Q## X009 (sc), vehicle: steriod suspending solution 104 % of control | endpoint: median survival time, dose: 500.0 mg/kg/injection, schedule: Q01DX009 (sc), vehicle: steriod suspending solution 102 % of control | endpoint: median survival time, dose: 500.0 mg/kg/injection, schedule: Q## X009 (sc), vehicle: steriod suspending solution 102 % of control | endpoint: median survival time, dose: 1000.0 mg/kg/injection, schedule: Q01DX009 (sc), vehicle: steriod suspending solution 102 % of control | endpoint: median survival time, dose: 1000.0 mg/kg/injection, schedule: Q## X009 (sc), vehicle: steriod suspending solution 102 % of control

ClCCn1c(CCl)nc2ccc(Cl)cc21
inactive: endpoint: mean survival time, dose: 2.5 mg/kg/injection, schedule: Q01DX009 (ip), vehicle: Klucel (hydroxypropylcellulose) (HPC) 109 % of control | endpoint: mean survival time, dose: 5.0 mg/kg/injection, schedule: Q01DX009 (ip), vehicle: Klucel (hydroxypropylcellulose) (HPC) 101 % of control | endpoint: mean survival time, dose: 10.0 mg/kg/injection, schedule: Q01DX009 (ip), vehicle: Klucel (hydroxypropylcellulose) (HPC) 95 % of control and 102 % of control

CC(=O)OCC1CCN2CCCC12 (centres undefined)
inactive: [1] 101 % of control | [2] 96 % of control | [3] 98 % of control | [6] 101 % of control | endpoint: mean survival time, dose: 200.0 mg/kg/injection, schedule: Q01DX009 (ip), vehicle: water 101 % of control

Cc1cccc(C)c1NC(=O)/C=C/c1ccccc1
inactive: endpoint: mean survival time, dose: 100.0 mg/kg/injection, schedule: Q04DX002 (ip), vehicle: saline with Tween-80 94 % of control | endpoint: mean survival time, dose: 200.0 mg/kg/injection, schedule: Q04DX002 (ip), vehicle: saline with Tween-80 90 % of control | endpoint: mean survival time, dose: 400.0 mg/kg/injection, schedule: Q04DX002 (ip), vehicle: saline with Tween-80 98 % of control

Cc1cn(C2CCC3(C)C(=CCC4C3CCC3(C)C(C(C)CCCC(C)C)CCC43)C2)c(=O)[nH]c1=O (centres undefined)
inactive: endpoint: mean survival time, dose: 37.5 mg/kg/injection, schedule: Q01DX001 (ip), vehicle: Klucel (hydroxypropylcellulose) (HPC) 88 % of control | endpoint: mean survival time, dose: 75.0 mg/kg/injection, schedule: Q01DX001 (ip), vehicle: Klucel (hydroxypropylcellulose) (HPC) 91 % of control | endpoint: mean survival time, dose: 150.0 mg/kg/injection, schedule: Q01DX001 (ip), vehicle: Klucel (hydroxypropylcellulose) (HPC) 91 % of control | endpoint: mean survival time, dose: 300.0 mg/kg/injection, schedule: Q01DX001 (ip), vehicle: Klucel (hydroxypropylcellulose) (HPC) 91 % of control

CC(C)(C(=O)O)C(=O)O
inactive: endpoint: mean survival time, dose: 50.0 mg/kg/injection, schedule: Q04DX003 (ip), vehicle: saline 97 % of control | [4] 94 % of control | [5] 100 % of control

O=S(=O)(O)C1CCC[N-]C1.O=S(=O)(O)C1CCC[N-]C1.[Cl][Pt+2]([Cl])([Cl])[Cl] (centres undefined)
inactive: [1] 102 % of control | [2] 102 % of control | [3] 105 % of control | [6] 110 % of control

Cc1cc2sc(C)[n+](CCCOS(=O)(=O)[O-])c2cc1C
inactive: endpoint: mean survival time, dose: 75.0 mg/kg/injection, schedule: Q01DX001 (ip), vehicle: saline 104 % of control | endpoint: mean survival time, dose: 150.0 mg/kg/injection, schedule: Q01DX001 (ip), vehicle: saline 104 % of control | endpoint: mean survival time, dose: 300.0 mg/kg/injection, schedule: Q01DX001 (ip), vehicle: saline 96 % of control

Cc1cc(NC(=O)Nc2ccccc2C)no1
inactive: endpoint: mean survival time, dose: 100.0 mg/kg/injection, schedule: Q01DX001 (ip), vehicle: saline with Tween-80 106 % of control | endpoint: mean survival time, dose: 200.0 mg/kg/injection, schedule: Q01DX001 (ip), vehicle: saline with Tween-80 100 % of control | endpoint: mean survival time, dose: 400.0 mg/kg/injection, schedule: Q01DX001 (ip), vehicle: saline with Tween-80 103 % of control

CCSCCNC1=C(C)C(=O)C2=C(C1=O)[C@H](COC(N)=O)[C@]1(OC)[C@H]3[C@@H](CN21)N3C (some centres undefined)
inactive: endpoint: mean survival time, dose: 1.5 mg/kg/injection, schedule: Q01DX001 (ip), vehicle: distilled water + Tween-80 103 % of control | endpoint: mean survival time, dose: 3.0 mg/kg/injection, schedule: Q01DX001 (ip), vehicle: distilled water + Tween-80 96 % of control and 103 % of control and 109 % of control | endpoint: mean survival time, dose: 6.0 mg/kg/injection, schedule: Q01DX001 (ip), vehicle: distilled water + Tween-80 104 % of control and 107 % of control and 108 % of control | endpoint: mean survival time, dose: 12.0 mg/kg/injection, schedule: Q01DX001 (ip), vehicle: distilled water + Tween-80 115 % of control and 102 % of control and 110 % of control | endpoint: mean survival time, dose: 24.0 mg/kg/injection, schedule: Q01DX001 (ip), vehicle: distilled water + Tween-80 121 % of control and 124 % of control | endpoint: mean survival time, dose: 48.0 mg/kg/injection, schedule: Q01DX001 (ip), vehicle: distilled water + Tween-80 115 % of control

Cc1ccccc1OS(=O)(=O)c1ccccc1
inactive: endpoint: mean survival time, dose: 100.0 mg/kg/injection, schedule: Q01DX009 (ip), vehicle: acetone 98 % of control | endpoint: mean survival time, dose: 100.0 mg/kg/injection, schedule: Q04DX003 (ip), vehicle: acetone 100 % of control | endpoint: mean survival time, dose: 200.0 mg/kg/injection, schedule: Q01DX009 (ip), vehicle: acetone 98 % of control | endpoint: mean survival time, dose: 200.0 mg/kg/injection, schedule: Q04DX003 (ip), vehicle: acetone 94 % of control | endpoint: mean survival time, dose: 400.0 mg/kg/injection, schedule: Q01DX009 (ip), vehicle: acetone 96 % of control | endpoint: mean survival time, dose: 400.0 mg/kg/injection, schedule: Q04DX003 (ip), vehicle: acetone 96 % of control

O=C1CCCC1=P(c1ccccc1)(c1ccccc1)c1ccccc1
inactive: endpoint: mean survival time, dose: 100.0 mg/kg/injection, schedule: Q04DX003 (ip), vehicle: other 99 % of control | endpoint: mean survival time, dose: 200.0 mg/kg/injection, schedule: Q04DX003 (ip), vehicle: other 90 % of control

O=CNc1ccccc1
inactive: [7] 97 % of control | endpoint: mean survival time, dose: 200.0 mg/kg/injection, schedule: Q01DX009 (ip), vehicle: saline with Tween-80 105 % of control | [8] 115 % of control

CCCCN1C(=O)C(=O)N(c2ccc(S(N)(=O)=O)cc2)C1=O
inactive: [9] 100 % of control | [7] 89 % of control

CN(C)C1c2cc(Cl)ccc2-c2ccc(Cl)cc21
inactive: endpoint: mean survival time, dose: 50.0 mg/kg/injection, schedule: Q01DX001 (ip), vehicle: carboxymethylcellulose (CMC) 101 % of control | endpoint: mean survival time, dose: 100.0 mg/kg/injection, schedule: Q01DX001 (ip), vehicle: carboxymethylcellulose (CMC) 95 % of control | endpoint: mean survival time, dose: 200.0 mg/kg/injection, schedule: Q01DX001 (ip), vehicle: carboxymethylcellulose (CMC) 101 % of control | endpoint: mean survival time, dose: 400.0 mg/kg/injection, schedule: Q01DX001 (ip), vehicle: carboxymethylcellulose (CMC) 98 % of control

COC(=O)Nc1ccc(Cc2ccc(NC(=O)OC)cc2)cc1
inactive: [9] 121 % of control and 104 % of control | [7] 120 % of control and 110 % of control | [8] 87 % of control
